The values that follow come from publication PMC5190074, “BET inhibition as a new strategy for the treatment of gastric cancer” (Oncotarget, 2016).

Assay [1] deals with T1, BRD4(1), first bromodomain of BRD4 (Homo sapiens, UniProt O60885).
T1 construct: first bromodomain; BRD4_HUMAN O60884-1 fragment 44-168 (crystallography)
As to the kind of experiment: ITC; co-crystal structure at […] Å. It counts as binding. A general note: Isothermal titration calorimetry measures the heat released or taken up as one component is titrated into another.

The next assay addresses T2, PB1(1) (Homo sapiens, UniProt Q86U86).
T2 construct: gene PBRM1; bromodomain 1
In words: biochemical. Also on record: thermal shift assay (real-time PCR machine), melting temperature shift of recombinant bromodomains at 2 uM protein. The method, then: (§1) The recombinant bromodomains at 2 μM were mixed with 10 μM inhibitors. The assays and data evaluation for melting temperatures were performed using a Real-Time PCR Mx3005p machine (Stratagene) and the protocols previously described. Experiments profiling the final compound (PNZ5) were performed in quadruplicates. […] Since its discovery in our own labs, similar inhibitors have also been disclosed by researchers at Boehringer Ingelheim [reference: patent, WO 2014/154760 [31]]. The inhibitor contains two possible acetyl-lysine mimetic moieties. In order to obtain molecular insights on the interaction of the developed inhibitor, the crystal structure of the first bromodomain of BRD4 in complex with PNZ5 was solved at 1.85 Å (Figure 2C and Supplementary Table 4, 5FBX.pdb). The inhibitor, coordinating residues and water molecules were well defined by the electron density. The dimethylisoxazole moiety mimicked the acetyl lysine side chain and formed two canonical hydrogen-bond interactions with Asn140 and water mediated hydrogen-bond with Tyr 97 (Figure 2C). The common network of waters within the binding site was also conserved in the BRD4(1)-PNZ5 complex. The compound was further stabilized by lipophilic interactions with residues forming the binding site Leu92, Leu94, Ile146. The [compound left out] substituent was well accommodated next to the WPF shelf, as well as the N1-methyl substituent that formed hydrophobic interactions with Trp81. The carbonyl on the isoindolinone established a water-mediated hydrogen bond with Lys91.

For the next assay, the target named is T3, PB1(3) (Homo sapiens, UniProt Q86U86).
T3 construct: gene PBRM1; bromodomain 3
As to the kind of experiment: biochemical. Also on record: thermal shift assay (real-time PCR machine), melting temperature shift of recombinant bromodomains at 2 uM protein. The method, then: as §1

Another assay deals with T4, GCN5L2 (Homo sapiens, UniProt Q92830).
T4 construct: gene KAT2A; bromodomain
As to the kind of experiment: biochemical. On the set-up: thermal shift assay (real-time PCR machine), melting temperature shift of recombinant bromodomains at 2 uM protein. The method, then: as §1

The next assay has as its target T5, CREBBP (Homo sapiens, UniProt Q92793).
T5 construct: bromodomain
In words: biochemical. Also on record: thermal shift assay (real-time PCR machine), melting temperature shift of recombinant bromodomains at 2 uM protein. The method, then: as §1

Another assay concerns the target T6, TAF1L(1) (Homo sapiens, UniProt Q8IZX4).
T6 construct: bromodomain 1
In words: biochemical. On the set-up: thermal shift assay (real-time PCR machine), melting temperature shift of recombinant bromodomains at 2 uM protein. The method, then: as §1

The next assay concerns the target T7, BRD4(2) (Homo sapiens, UniProt O60885).
T7 construct: bromodomain 2
As to the kind of experiment: biochemical. On the set-up: thermal shift assay (real-time PCR machine), melting temperature shift of recombinant bromodomains at 2 uM protein. The procedure:
as §1

For the next assay, the target named is T8, BRPF1A (Homo sapiens, UniProt P55201).
T8 construct: gene BRPF1; isoform A bromodomain
In words: biochemical. On the set-up: thermal shift assay (real-time PCR machine), melting temperature shift of recombinant bromodomains at 2 uM protein. The method, then:
as §1

The target in a further assay is T9, TRIM28 (Homo sapiens, UniProt Q13263).
T9 construct: bromodomain
In words: biochemical. Also on record: thermal shift assay (real-time PCR machine), melting temperature shift of recombinant bromodomains at 2 uM protein. The procedure: as §1

The target of a further assay is T10, PB1(2) (Homo sapiens, UniProt Q86U86).
T10 construct: gene PBRM1; bromodomain 2
In words: biochemical. On the set-up: thermal shift assay (real-time PCR machine), melting temperature shift of recombinant bromodomains at 2 uM protein. The procedure:
as §1

Another assay deals with T11, BAZ2B (Homo sapiens, UniProt Q9UIF8).
T11 construct: bromodomain
As to the kind of experiment: biochemical. On the set-up: thermal shift assay (real-time PCR machine), melting temperature shift of recombinant bromodomains at 2 uM protein. The procedure: as §1

In a further assay the target is T12, PB1(5) (Homo sapiens, UniProt Q86U86).
T12 construct: gene PBRM1; bromodomain 5
As to the kind of experiment: biochemical. Also on record: thermal shift assay (real-time PCR machine), melting temperature shift of recombinant bromodomains at 2 uM protein. The procedure:
as §1

Another assay deals with T13, SMARCA2 (Homo sapiens, UniProt P51531).
T13 construct: bromodomain
As to the kind of experiment: biochemical. Also on record: thermal shift assay (real-time PCR machine), melting temperature shift of recombinant bromodomains at 2 uM protein. The procedure:
as §1

The next assay deals with T14, BAZ1A (Homo sapiens, UniProt Q9NRL2).
T14 construct: bromodomain
As to the kind of experiment: biochemical. Also on record: thermal shift assay (real-time PCR machine), melting temperature shift of recombinant bromodomains at 2 uM protein. The procedure:
as §1

Assay [2] has as its target T1, BRD4(1), first bromodomain of BRD4. As to the kind of experiment: biochemical. The following applies: read-out: ΔTm Shift (oC). On the set-up: thermal shift assay, SAR of isoxazole compounds against BRD4(1). The procedure:
The recombinant bromodomains at 2 μM were mixed with 10 μM inhibitors. The assays and data evaluation for melting temperatures were performed using a Real-Time PCR Mx3005p machine (Stratagene) and the protocols previously described. Experiments profiling the final compound (PNZ5) were performed in quadruplicates. Isoxazoles have been explored previously as BET bromodomain inhibitors. We have developed PNZ5, a new isoxazole-based inhibitor originating from the lead compound S1 (Figure 1). PNZ5 was developed as the result of a structure-based lead optimisation program. Dihydroindene S1 was identified as a ligand against BRD4(1) (pIC50 5.9). Investigation of the co-crystal structure of S1 with BRD4(1) [PDB ID 4GPJ] identified a number of positions for potential optimisation: addition of a carbonyl group at C-3 was envisaged to benefit from hydrogen-bonds (H-bonds) to a network of conserved water molecules; replacement of C-2 with a nitrogen would minimise interactions in the narrow ZA channel of BRD4(1) and N-substitution could provide further binding interactions with the protein; and alternative substitution of the hydroxyl at C-1 would provide a handle for further optimisation. […] The three best compounds, S3, S5 and S7, were destined to be separated into their component enantiomers for further evaluation (Supplementary Table 2). […]

T9 sequence (Q13263 whole entry): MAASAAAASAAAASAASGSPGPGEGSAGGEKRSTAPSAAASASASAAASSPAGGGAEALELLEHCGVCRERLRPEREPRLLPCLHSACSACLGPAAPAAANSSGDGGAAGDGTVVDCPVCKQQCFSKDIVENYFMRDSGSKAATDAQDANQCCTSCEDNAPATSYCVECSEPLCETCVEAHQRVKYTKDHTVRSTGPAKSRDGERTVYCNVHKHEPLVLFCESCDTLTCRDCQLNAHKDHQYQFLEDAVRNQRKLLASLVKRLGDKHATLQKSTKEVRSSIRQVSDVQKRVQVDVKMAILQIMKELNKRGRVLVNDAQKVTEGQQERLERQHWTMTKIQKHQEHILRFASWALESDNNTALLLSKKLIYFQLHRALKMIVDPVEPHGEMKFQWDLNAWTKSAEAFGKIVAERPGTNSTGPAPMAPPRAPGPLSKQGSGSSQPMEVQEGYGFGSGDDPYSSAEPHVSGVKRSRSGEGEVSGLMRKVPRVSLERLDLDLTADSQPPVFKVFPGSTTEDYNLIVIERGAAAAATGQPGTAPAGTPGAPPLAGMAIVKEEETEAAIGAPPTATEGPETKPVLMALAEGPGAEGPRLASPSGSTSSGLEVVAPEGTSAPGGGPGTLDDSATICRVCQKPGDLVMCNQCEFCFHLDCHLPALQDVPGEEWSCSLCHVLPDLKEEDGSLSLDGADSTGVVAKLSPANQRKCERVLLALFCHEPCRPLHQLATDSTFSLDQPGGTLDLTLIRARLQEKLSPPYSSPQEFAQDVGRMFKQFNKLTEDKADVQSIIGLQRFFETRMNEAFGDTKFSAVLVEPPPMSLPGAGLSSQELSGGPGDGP
T8 sequence (P55201 whole entry, canonical isoform): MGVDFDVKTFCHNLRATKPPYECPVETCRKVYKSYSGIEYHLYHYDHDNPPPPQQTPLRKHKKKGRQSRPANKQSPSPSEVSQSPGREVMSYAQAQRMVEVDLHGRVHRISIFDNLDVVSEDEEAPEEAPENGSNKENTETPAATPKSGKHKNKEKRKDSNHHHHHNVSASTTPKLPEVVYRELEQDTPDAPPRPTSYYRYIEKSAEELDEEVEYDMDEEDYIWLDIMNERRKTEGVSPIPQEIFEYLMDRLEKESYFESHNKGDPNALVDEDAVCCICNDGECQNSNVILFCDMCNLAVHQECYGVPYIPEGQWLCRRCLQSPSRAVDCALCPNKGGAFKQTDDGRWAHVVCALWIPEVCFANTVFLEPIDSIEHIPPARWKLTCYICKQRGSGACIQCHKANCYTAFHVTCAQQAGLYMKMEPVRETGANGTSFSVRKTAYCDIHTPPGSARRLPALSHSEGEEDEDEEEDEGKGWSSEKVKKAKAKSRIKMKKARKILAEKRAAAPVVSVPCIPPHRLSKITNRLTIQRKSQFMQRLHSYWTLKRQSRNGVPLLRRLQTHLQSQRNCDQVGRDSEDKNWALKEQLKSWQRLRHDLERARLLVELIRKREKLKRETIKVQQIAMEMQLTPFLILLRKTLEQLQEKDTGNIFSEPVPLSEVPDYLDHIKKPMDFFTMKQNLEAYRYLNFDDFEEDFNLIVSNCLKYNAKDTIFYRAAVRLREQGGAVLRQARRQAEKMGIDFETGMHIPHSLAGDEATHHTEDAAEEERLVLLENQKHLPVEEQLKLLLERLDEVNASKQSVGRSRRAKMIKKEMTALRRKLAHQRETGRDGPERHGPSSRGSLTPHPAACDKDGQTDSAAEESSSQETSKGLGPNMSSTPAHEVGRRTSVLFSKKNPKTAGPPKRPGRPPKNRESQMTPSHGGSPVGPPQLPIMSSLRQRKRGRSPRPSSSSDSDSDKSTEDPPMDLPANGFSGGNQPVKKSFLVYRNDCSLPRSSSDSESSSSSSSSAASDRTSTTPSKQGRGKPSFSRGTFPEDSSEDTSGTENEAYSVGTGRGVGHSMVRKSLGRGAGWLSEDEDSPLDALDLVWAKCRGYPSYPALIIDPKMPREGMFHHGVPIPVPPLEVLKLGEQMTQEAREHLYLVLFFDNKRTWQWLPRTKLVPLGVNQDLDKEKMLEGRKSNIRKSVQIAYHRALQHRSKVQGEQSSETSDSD
T14 sequence (Q9NRL2 whole entry): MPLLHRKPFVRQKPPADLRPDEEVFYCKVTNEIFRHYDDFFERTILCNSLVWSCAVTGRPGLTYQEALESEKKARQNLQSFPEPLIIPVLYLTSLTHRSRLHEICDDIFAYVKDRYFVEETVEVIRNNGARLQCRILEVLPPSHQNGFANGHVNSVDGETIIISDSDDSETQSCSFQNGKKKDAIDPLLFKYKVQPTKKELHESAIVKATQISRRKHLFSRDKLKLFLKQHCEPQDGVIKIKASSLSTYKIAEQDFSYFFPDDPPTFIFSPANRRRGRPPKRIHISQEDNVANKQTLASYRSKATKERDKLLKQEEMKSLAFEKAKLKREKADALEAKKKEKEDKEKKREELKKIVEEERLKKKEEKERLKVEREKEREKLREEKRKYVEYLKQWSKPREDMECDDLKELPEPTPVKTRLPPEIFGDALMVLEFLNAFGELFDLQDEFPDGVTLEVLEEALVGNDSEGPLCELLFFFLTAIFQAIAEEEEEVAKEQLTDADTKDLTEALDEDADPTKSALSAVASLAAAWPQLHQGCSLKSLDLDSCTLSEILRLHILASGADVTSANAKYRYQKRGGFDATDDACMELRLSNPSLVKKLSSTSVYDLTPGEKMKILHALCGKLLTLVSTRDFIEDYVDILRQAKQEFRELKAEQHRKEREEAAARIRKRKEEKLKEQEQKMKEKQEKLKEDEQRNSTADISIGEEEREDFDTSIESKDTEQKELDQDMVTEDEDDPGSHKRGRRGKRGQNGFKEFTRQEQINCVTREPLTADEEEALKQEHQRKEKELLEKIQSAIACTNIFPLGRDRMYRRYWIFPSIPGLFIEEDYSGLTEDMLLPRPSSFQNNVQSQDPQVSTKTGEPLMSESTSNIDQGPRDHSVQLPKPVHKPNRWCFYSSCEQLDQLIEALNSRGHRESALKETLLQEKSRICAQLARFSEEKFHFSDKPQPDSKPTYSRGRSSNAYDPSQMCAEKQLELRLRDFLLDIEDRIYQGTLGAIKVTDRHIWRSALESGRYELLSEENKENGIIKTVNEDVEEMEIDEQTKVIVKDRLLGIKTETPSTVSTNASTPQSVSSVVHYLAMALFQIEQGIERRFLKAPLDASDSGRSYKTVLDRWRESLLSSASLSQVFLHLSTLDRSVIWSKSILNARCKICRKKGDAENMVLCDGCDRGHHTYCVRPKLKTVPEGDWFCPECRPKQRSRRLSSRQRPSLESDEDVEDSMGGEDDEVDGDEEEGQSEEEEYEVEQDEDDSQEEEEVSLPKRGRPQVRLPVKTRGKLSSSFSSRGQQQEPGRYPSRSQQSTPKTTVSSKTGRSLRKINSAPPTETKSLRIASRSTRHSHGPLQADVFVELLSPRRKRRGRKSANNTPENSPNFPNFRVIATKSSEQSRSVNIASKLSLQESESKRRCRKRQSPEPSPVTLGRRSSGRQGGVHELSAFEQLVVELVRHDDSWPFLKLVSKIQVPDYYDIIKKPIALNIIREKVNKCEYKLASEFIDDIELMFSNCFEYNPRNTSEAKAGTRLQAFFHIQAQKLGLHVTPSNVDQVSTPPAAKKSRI
T4 sequence (Q92830 whole entry): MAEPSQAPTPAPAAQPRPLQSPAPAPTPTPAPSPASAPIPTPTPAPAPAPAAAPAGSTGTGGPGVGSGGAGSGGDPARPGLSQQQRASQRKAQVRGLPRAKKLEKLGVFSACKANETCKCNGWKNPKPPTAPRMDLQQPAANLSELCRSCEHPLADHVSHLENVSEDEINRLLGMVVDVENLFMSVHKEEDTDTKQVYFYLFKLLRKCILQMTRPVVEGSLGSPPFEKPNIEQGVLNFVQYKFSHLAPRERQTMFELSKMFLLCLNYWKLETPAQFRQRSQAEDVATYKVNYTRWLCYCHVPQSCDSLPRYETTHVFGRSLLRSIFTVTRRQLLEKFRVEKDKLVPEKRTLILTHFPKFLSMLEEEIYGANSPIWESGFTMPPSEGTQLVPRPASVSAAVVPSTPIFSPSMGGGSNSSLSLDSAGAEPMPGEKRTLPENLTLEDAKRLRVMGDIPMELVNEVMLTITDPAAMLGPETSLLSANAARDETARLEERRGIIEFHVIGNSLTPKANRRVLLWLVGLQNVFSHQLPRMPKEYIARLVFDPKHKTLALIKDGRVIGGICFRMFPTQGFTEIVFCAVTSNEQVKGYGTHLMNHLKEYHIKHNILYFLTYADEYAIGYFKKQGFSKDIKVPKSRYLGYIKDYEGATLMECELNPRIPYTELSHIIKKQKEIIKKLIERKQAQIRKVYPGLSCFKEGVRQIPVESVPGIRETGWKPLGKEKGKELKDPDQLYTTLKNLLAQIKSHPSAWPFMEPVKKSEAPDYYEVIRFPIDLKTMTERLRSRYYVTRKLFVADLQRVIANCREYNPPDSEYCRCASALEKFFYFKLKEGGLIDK

With `Cc1noc(C)c1-c1ccc2c(c1)[C@H](c1ccccc1)N(C)C2=O` [PNZ5], the Kd in assay [1] turned out to be 5.43 nM. Further, the ΔTm at 10 µM was 0.79 °C at PB1(1); 0.12 °C on PB1(3); 0.25 °C on GCN5L2; 2.37 °C on CREBBP; 0.31 °C on TAF1L(1); 7.04 °C on BRD4(2). In addition, the ΔTm at 10 µM at BRPF1A was 0.81 °C; at TRIM28 it was -0.11 °C; at PB1(2) it was 0.27 °C; at BAZ2B it was 0.38 °C; on PB1(5), 0.28 °C; on SMARCA2 it was -0.18 °C. The ΔTm at 10 µM stood at 1.2 °C at BAZ1A and 11.4 °C in [2].

As usually defined, the Kd is the constant that tells how readily two partners part at equilibrium. The low end stands for higher affinity, the high end for lower affinity.
